Test results: patent publication US8901317B2, “Tryptamine derivatives, their preparation and their use in gastropathy” (Council of Scientific & Industrial Research, priority 2010, dated 2014)

Legend:
[1] = Ferric reducing antioxidant power (FRAP) assay; conditions: for FRAP Value6 min (μM) M ± SD: 6 min; for FRAP Value6 min (μM) M ± SD / FRAP Value65 min (μM) M ± SD: compound at 10 μM relative to ferrous sulfate; for FRAP Value65 min (μM) M ± SD: 65 min
Experimental: The antioxidant property of different tryptamine derivatives were assessed and compared with the known antioxidants for potency. […] The FRAP assay is based on the measurement of the ability of the substance to reduce Fe^3+ to Fe^2+, greater the reducing ability greater the anti oxidant property. Antioxidants reduce Fe^3+-TPTZ in to blue colored Fe^2+-TPTZ complex, which results in an increase in the absorbance at 595 nm giving a FRAP value. […] Absorbance changes at different time intervals (FIG. 6) as well as at different concentrations (FIG. 7) at time 6 min in the presence of different compounds at 595 nm were measured. FRAP values at 6 min and 65 min were calculated from different tryptamine derivatives and some known antioxidant (Table 1). […] DPPH assay based on the DPPH free radicals scavenging power of the antioxidant molecules. Higher the scavenging power higher will be the antioxidant property.
The assay was performed in a 96-well microplate. FRAP reagent was prepared by mixing of 10 ml acetate buffer (200 mM, pH-3.6), 1 ml of 2,4,6-tris(2-pyridyl)-s-triazine (TPTZ) solution (10 mM in 40 mM HCl) and 1 ml of ferric chloride solution (20 mM) in distilled water. For 1 h the mixture was kept in a water bath at 37° C. In 96-well microplates, 25 μL of the compounds under investigation dissolved (in methanol, some compound dissolved in water) at different concentrations in the range 1-25 μM was placed in triplicate and freshly prepared FRAP solution (175 μL) was added to this sample. A micro plate reader monitored the absorbance at 595 nm at different time intervals for up to 150 min. The absorbance of a mixture 175 μL TRAP sol and 25 μL methanol or water was taken which was subtracted from the absorbance of the samples at each time interval to calculate the absorbance change (ΔA). The FRAP value at time interval t (FRAP valuet) was calculated according to the formula: FRAP valuet(M)=(ΔatFl/ΔatFe^2+)×10^−5 Where ΔatFl is the absorbance change after the time interval t (6 and 65 min) relative to the tested flavonoid at the concentration of 10 μM and ΔatFe^2+ is the absorbance change at the same time interval relative to ferrous sulfate at the same concentration (Pal, C; et al. Free Radic Biol Med, 49(2), 258-267, 2010, Firuzi, O; et al. Biochim. Biophys. Acta 1721:174-184; 2005).

[2] = DPPH free radical scavenging assay
Experimental: The antioxidant property of different tryptamine derivatives were assessed and compared with the known antioxidants for potency. A range of different synthesized compounds and known anti oxidants, quercetin, ascorbic acid and gallic acid were analyzed by the FRAP assay. The FRAP assay is based on the measurement of the ability of the substance to reduce Fe^3+ to Fe^2+, greater the reducing ability greater the anti oxidant property. Antioxidants reduce Fe^3+-TPTZ in to blue colored Fe^2+-TPTZ complex, which results in an increase in the absorbance at 595 nm giving a FRAP value. […] Absorbance changes at different time intervals (FIG. 6) as well as at different concentrations (FIG. 7) at time 6 min in the presence of different compounds at 595 nm were measured. FRAP values at 6 min and 65 min were calculated from different tryptamine derivatives and some known antioxidant (Table 1). […] DPPH assay based on the DPPH free radicals scavenging power of the antioxidant molecules. Higher the scavenging power higher will be the antioxidant property. […] This assay was performed in presence of some known antioxidants such as ascorbic acid, quercetin and gallic acid.
2,2-Diphenyl-1-Picrylhydrazyl (DPPH) is a stable free radical that can accept hydrogen radical or an electron and become a stable diamagnetic molecule. The antioxidants can scavenge the DPPH by donating hydrogen as visualized by discoloration of the DPPH radical from purple to yellow (Pal, C; et al. Free Radic Biol Med, 49(2), 258-267; 2010, Ben Farhat, M.; et al. J. Agric. Food Chem. 57:10349-10356; 2009, Han, J; et al. Wei Sheng Yan Jiu 38:596-598; 2009). The assay system contained 1 mL of compounds under investigation dissolved (in methanol, some compound dissolved in water) at different concentrations in the range 10-100 μM solution and 4 ml of DPPH (0.15 mM) in methanol (80% in water v/v) and mixed well. It was allowed to stand for 30 min at 27° C. away from light. Ascorbic acid at the same concentration was taken as positive control. The absorbance of the solution was measured spectrophotometrically at 517 nm and from the decrease of absorption; the antioxidant activity of different tryptamine derivatives were determined.

[3] = test system: indomethacin-induced gastric mucosal damage; assay: Indomethacin-induced gastric mucosal damage (ulcer index, histology); assay type: in vivo, Sprague-Dwaley rats; conditions: for gastroprotective effect compared with SEGA (3a): 6.9 mg kg^−1 intraperitoneally, indomethacin-induced gastropathy; for Gastric mucosal damage (ulcer index): rats
Experimental: Sprague-Dwaley rats (180-220 gm) were used for this study. Each group (control or experimental) of animals was maintained at 24±2° C. with 12 hrs lights and dark cycle. The animals were fasted for 24 hrs before the start of experiments. They were provided with water ad libitum to avoid food-induced increased acid secretion and its effect on gastric lesions. Gastric mucosal ulcer was developed by indomethacin as described (Pal, C; et al. Free Radic Biol Med, 49(2), 258-267; 2010, Biswas, K.; et al. J. Biol. Chem. 278:10993-11001; 2003, Bandyopadhyay, U.; et al. Life Sci. 71:2845-2865; 2002). Briefly, all the animals were divided into control, indomethacin and test compound group. Oral administration of indomethacin at a dose of 48 mg kg^−1 b.w was given to the fasted animals to induce gastric ulcer. […] Control group received vehicle only but no indomethacin. After 4 hrs of indomethacin treatment, the animals were sacrificed under proper euthanasia and stomachs were collected. The mucosal injury was scored as ulcer index as follows: 0=no pathology; 1=one pinhead ulcer. The sum of the total scores divided by the number of animals gave the ulcer index. All the in vivo studies were done in accordance with the institute animal ethical committee guidelines. To see the effect of SEGA on diclofenac induced gastric mucosal injury, gastric mucosal damage was developed by the oral administration of diclofenac (75 mg kg^−1) and the rest of the experiment was carried out in a similar way as described for indomethacin. Diclofenac produced pinhead ulcer like indomethacin and the mucosal injury was scored as ulcer index as described above. Ethanol-induced gastric mucosal injury was developed with oral administration of 1 ml of 50% ethanol (Banerjee, R. K. (2002) Life Sci 71, 2845-2865) and after 4 hrs the animals were sacrificed and cold-restrain stress induced mucosal injury was developed by immobilizing the animals at 4° C. for 3.5 hrs (Banerjee, R. K. (2002) Life Sci 71, 2845-2865, (2003) J Biol Chem 278, 10993-11001).
Stomach tissues from the animals of different groups were washed first washed several times with PBS (pH 7.4) and later fixed in 10% buffered formalin for 12 hrs at 25° C. The formalin-fixed tissues were then dehydrated and embedded in paraffin for preparing semi-thin sections (Maity, P.; et al. J. Biol. Chem. 283:14391-14401; 2008). The semi-thin sections were prepared using a microtome and taken over poly-L-lysine coated glass slide for hematoxylene-eosine staining. The stained sections were observed under microscope (Leica DM-2500, Germany) and were documented by high-resolution digital camera.

rats = assay: Toxicity (death) after injection in rats; assay type: in vivo
[4] = compounds 100 μM, 517 nm (Table 2)
[5] = compound 6.9 mg kg^−1 intraperitoneally before indomethacin 48 mg kg^−1 oral

SMILES | FRAP Value6 min (μM) M ± SD [1] [µM] | FRAP Value65 min (μM) M ± SD [1] [µM] | Absorbance change (ΔA) at 30 min [2, 4] | other results
O=C1O[C@H]([C@@H](O)CO)C(O)=C1O [Ascorbic acid, reference compound] | 15.46 ± 0.07 | 15.89 ± 2.24 |  | 
O=C(Cc1c[nH]c2ccccc12)NCCc1c[nH]c2ccc(O)cc12 [Compound 2c, N-(2-(5-hydroxy-1H-indol-3-yl)ethyl)-2-(1H-indol-3-yl)acetamide] | 2.48 ± 0.10 | 3.57 ± 0.41 | 0.14 ± 0.04 | 
O=C(/C=C/c1ccc(O)cc1)NCCc1c[nH]c2ccccc12 [Compound 2e, (E)-N-(2-(1H-indol-3-yl)ethyl)-3-(4-hydroxyphenyl)acrylamide] | 2.45 ± 0.19 | 5.60 ± 1.02 | 0.11 ± 0.02 | 
O=C(Cc1c[nH]c2ccccc12)NCCc1c[nH]c2ccccc12 [Compound 2f, N-(2-(1H-indol-3-yl)ethyl)-2-(1H-indol-3-yl)acetamide] | 2.44 ± 0.24 | 3.33 ± 0.49 | 0.13 ± 0.03 | 
COc1ccc2[nH]cc(CCNC(=O)/C=C/c3ccc(O)cc3)c2c1 [Compound 2h, (E)-3-(4-hydroxyphenyl)-N-(2-(5-methoxy-1H-indol-3-yl)ethyl)acrylamide] | 1.87 ± 0.13 | 2.93 ± 1.43 | 0.11 ± 0.03 | 
COc1ccc2[nH]cc(CCNC(=O)Cc3c[nH]c4ccccc34)c2c1 [Compound 2i, 2-(1H-indol-3-yl)-N-(2-(5-methoxy-1H-indol-3-yl)ethyl) acetamide] | 1.94 ± 0.04 | 2.5 ± 0.34 | 0.12 ± 0.02 | 
O=C(NCCc1c[nH]c2ccccc12)c1cc(O)c(O)c(O)c1 [Compound 3b, N-(2-(1H-indol-3-yl)ethyl)-3,4,5-trihydroxybenzamide] | 14.32 ± 0.36 | 19.65 ± 2.1 | 0.31 ± 0.06 | Absorbance change (ΔA) at 30 min ([2]; concentration 10 μM (Table 3)): 0.16 ± 0.02; Absorbance change (ΔA) at 30 min ([2]; concentration 30 μM (Table 3)): 0.21 ± 0.05; Absorbance change (ΔA) at 30 min ([2]; concentration 50 μM (Table 3)): 0.23 ± 0.04; Absorbance change (ΔA) at 30 min ([2]; concentration 80 μM (Table 3)): 0.28 ± 0.03; Absorbance change (ΔA) at 30 min ([2]; concentration 100 μM (Table 3)): 0.31 ± 0.06; gastroprotective effect compared with SEGA (3a) [3]: lesser gastroprotective effect; Gastric mucosal damage (ulcer index) [3, 5]: 42 ± 2
COc1ccc2[nH]cc(CCNC(=O)c3cc(O)c(O)c(O)c3)c2c1 [Compound 3c, 3,4,5-trihydroxy-N-(2-(5-methoxy-1H-indol-3-yl)ethyl)benzamide] | 15.32 ± 0.46 | 21.96 ± 2.6 | 0.35 ± 0.08 | Absorbance change (ΔA) at 30 min ([2]; concentration 10 μM (Table 3)): 0.18 ± 0.02; Absorbance change (ΔA) at 30 min ([2]; concentration 30 μM (Table 3)): 0.24 ± 0.03; Absorbance change (ΔA) at 30 min ([2]; concentration 50 μM (Table 3)): 0.28 ± 0.05; Absorbance change (ΔA) at 30 min ([2]; concentration 80 μM (Table 3)): 0.31 ± 0.07; Absorbance change (ΔA) at 30 min ([2]; concentration 100 μM (Table 3)): 0.35 ± 0.08; gastroprotective effect compared with SEGA (3a) [3]: lesser gastroprotective effect; Gastric mucosal damage (ulcer index) [3, 5]: 39 ± 2
NCCc1c[nH]c2ccc(OC(=O)c3cc(O)c(O)c(O)c3)cc12 [Compound 4d, 3-(2-aminoethyl)-1H-indol-5-yl 3,4,5-trihydroxybenzoate] | 24.02 ± 1.98 | 35.40 ± 3.25 | 0.38 ± 0.07 | Absorbance change (ΔA) at 30 min ([2]; concentration 10 μM (Table 3)): 0.18 ± 0.01; Absorbance change (ΔA) at 30 min ([2]; concentration 30 μM (Table 3)): 0.27 ± 0.03; Absorbance change (ΔA) at 30 min ([2]; concentration 50 μM (Table 3)): 0.31 ± 0.05; Absorbance change (ΔA) at 30 min ([2]; concentration 80 μM (Table 3)): 0.33 ± 0.05; Absorbance change (ΔA) at 30 min ([2]; concentration 100 μM (Table 3)): 0.38 ± 0.07; gastroprotective effect compared with SEGA (3a) [3]: lesser gastroprotective effect; Gastric mucosal damage (ulcer index) [3, 5]: 41 ± 2.5
COc1ccc2c(c1)c(CC(=O)O)c(C)n2C(=O)c1ccc(Cl)cc1 [Indomethacin, reference compound] |  |  |  | Gastric mucosal damage (ulcer index) ([3]; indomethacin 48 mg kg^−1 alone, oral): 61 ± 3
O=c1c(O)c(-c2ccc(O)c(O)c2)oc2cc(O)cc(O)c12 [Quercetin, reference compound] | 28.11 ± 1.00 | 48.55 ± 4.85 |  | 
NCCc1c[nH]c2ccc(O)cc12 [Serotonin, 5-hydroxytryptamine, reference compound] | 21.61 ± 3.65 | 35.48 ± 6.55 |  | reducing ability (Fe^3+ to Fe^2+) / antioxidant property in words ([1]; compared to other tryptamine derivatives and known antioxidants): very little antioxidant property; death of rats after injection (rats; i.p. 25 mg kg^−1): all the rats were found to be dead; death of rats after injection (rats; i.p. 50 mg kg^−1): all the rats were found to be dead
